In PMC9220351, “Evaluation of a Conformationally Constrained Indole Carboxamide as a Potential Efflux Pump Inhibitor in Pseudomonas aeruginosa” (Antibiotics, 2022):
Read-outs that look alike come from different tables or passages of the source.

What was measured:
[1] = system: P. aeruginosa DA7232 (gyrA-T83I, parC-S80L); experiment: MIC / levofloxacin potentiation, fluoroquinolone-resistant strain; type: cell-based, Pseudomonas aeruginosa
Excerpt: P. aeruginosa ATCC 27853 was obtained from the American Type Culture Collection (ATCC; Manassas, VA, USA). P. aeruginosa multidrug-resistant isolates were obtained from the CDC and FDA Antibiotic Resistance Isolate Bank (Atlanta, GA, USA). P. aeruginosa DA7232 (gyrA-T83I, parC-S80L) was a kind gift from Prof. Dan I. Andersson, Uppsala University, Uppsala, Sweden, and has been characterized elsewhere. P. aeruginosa strains K767 (WT), K1455 (mexAB-oprM overexpressed), K2415 (mexXY-oprM overexpressed), and K3698 (oprM∆) were obtained from Prof. Keith Poole, Queen’s University, Kingston, Ontario, Canada and have been characterized elsewhere. Bacterial cells were grown in cation-adjusted Mueller Hinton (CAMH) media, brain heart infusion broth (BHI), or tryptic soy agar (TSA) plates were all obtained from Becton, Dickinson, and Company (BD; Franklin Lakes, NJ, USA). Aztreonam, ceftazidime, moxifloxacin, levofloxacin, minocycline, tigecycline, chloramphenicol, nitrocefin, and imipenem were purchased from TOKU-E (Bellingham, WA, USA). Azithromycin was purchased from Tokyo Chemical Industry (Portland, OR, USA). Cotrimoxazole was purchased from Toronto Research Chemicals (Toronto, ON, Canada). Doxycycline and polymyxin B were purchased from Sigma-Aldrich (St. Louis, MO, USA). Ethidium bromide (EtBr) and glucose were purchased from VWR (Radnor, PA, USA). MC-04,124 and TXA01182 were synthesized at TAXIS Pharmaceuticals. Carbonyl cyanide 3-chlorophenylhydrazone (CCCP) was purchased from Enzo Life Sciences (Farmingdale, NY, USA). DiOC2 (3) and propidium iodide were obtained from Thermo Fisher Scientific (Waltham, MA, USA).
MIC assays were performed as described previously.

[2] = system: P. aeruginosa ATCC 27853; experiment: MIC / antibiotic potentiation assay, wild-type strain; settings: for MIC: Pseudomonas aeruginosa
[3] = system: P. aeruginosa ATCC 27853; type: cell-based, Pseudomonas aeruginosa
Procedure: All resistant colonies were verified by determining the MIC to TXA09155. […] This two-component system regulates the expression of more than 100 genes in P. aeruginosa, including genes that code for efflux components (mexX), and plays a role in the resistance to cationic antimicrobial peptides and aminoglycoside antibiotics.
The frequency of resistance studies was carried out as described previously.

[4] = system: P. aeruginosa ATCC 27853 inner membrane; experiment: Flow cytometry propidium iodide (PI) assay for inner membrane permeabilization; type: cell-based, Pseudomonas aeruginosa; settings: no inner membrane permeabilization below this concentration
Procedure: Membrane disruption was assayed with two approaches: (1) a flow cytometry-based propidium iodide (PI) assay to monitor inner membrane permeabilization, and (2) a nitrocefin (NCF) assay to monitor outer membrane permeabilization. NCF is a chromogenic cephalosporin that changes from yellow to red when the amide bond in the β-lactam ring is hydrolyzed by a β-lactamase. The rate of hydrolysis in intact cells is slow, as it is limited by the rate of diffusion of periplasmic β-lactamase across the outer membrane. However, in the presence of an agent that permeabilizes the outer membrane, the rate of hydrolysis will increase [33]. […] Polymyxin B was used as a positive control (Figure 2B). […] Cells whose membranes remain intact exclude PI and remain non-fluorescent, while cells with compromised membrane integrity allow PI to enter and bind to DNA, resulting in fluorescence.
A flow cytometry assay used for assessing potential inner membranes permeabilization of P. aeruginosa bacterial cells to PI was conducted using the LIVE/DEAD BacLight Kit from Invitrogen (Waltham, MA, USA). […] Intracellular PI fluorescence was detected by flow cytometry using a CytoFlex (Beckman Coulter Inc., Brea, CA, USA). […] For each sample, the fluorescence of 10,000 individual bacterial cells was measured, and the percent of cells that stained positive for PI fluorescence was calculated.

[5] = system: P. aeruginosa ATCC 27853 inner membrane potential; experiment: DiOC2 (3) membrane polarization assay; type: cell-based, Pseudomonas aeruginosa; settings: 20 to 0.01 μM
Procedure: RND efflux pumps couple the influx of protons from the proton gradient across the inner membrane to the efflux of drugs and other molecules. […] The effect of TXA09155 on the proton gradient of P. aeruginosa was assessed with a fluorescence-based 3,3′-diethyloxacarbocyanine iodide [DiOC2 (3)] assay that was developed to measure membrane potential changes in Gram-negative bacteria. DiOC2 (3) is a positively charged fluorescent dye that accumulates within cells in a charge-dependent manner, shifting its fluorescence spectrum from green to red at high concentrations due to concentration-dependent dye stacking. […] Azithromycin and CCCP were used as […] controls, respectively.
P. aeruginosa membrane polarization assays were conducted as described previously using strain ATCC 27853. […] DiOC2 (3) fluorescence was recorded in a microplate reader using 450 nm excitation and 670 nm emission (for red fluorescence). Background correction for each concentration of each compound was obtained from reading the fluorescence of compounds in the resuspension buffer without cells. After background correction, fluorescence was normalized to that of the vehicle (DMSO) only. After a 30 min incubation at 37 °C, DiOC2 (3) fluorescence was recorded using a SpectraMax iD5 spectrophotometer (Molecular Devices, San Jose, CA, USA) following excitation at 450 nm. […]

[6] = system: P. aeruginosa ATCC 27853; experiment: Intracellular ATP levels; type: cell-based, Pseudomonas aeruginosa; settings: 1/4th and 1/8th MIC, 3 h
Procedure: P. aeruginosa intracellular ATP levels were determined as described previously using an ATP determination kit (catalog number A22066; Thermo Fisher Scientific, Waltham, MA, USA). […] After treatment, the cells were lysed in chloroform, which was subsequently removed by boiling at 80 °C. The persistent ATP from cell lysate was measured in a 96-well black flat-bottom plate and plotted as relative luminescence units. […] Error bars represent the standard deviation of triplicates.

[7] = target: CYP1A2 (Homo sapiens, UniProt P05177); experiment: CYP inhibition; type: in vitro ADME; settings: read-out: CYP Inhibition IC50, CYP 1A2
Chain of CYP1A2 (P05177 whole entry): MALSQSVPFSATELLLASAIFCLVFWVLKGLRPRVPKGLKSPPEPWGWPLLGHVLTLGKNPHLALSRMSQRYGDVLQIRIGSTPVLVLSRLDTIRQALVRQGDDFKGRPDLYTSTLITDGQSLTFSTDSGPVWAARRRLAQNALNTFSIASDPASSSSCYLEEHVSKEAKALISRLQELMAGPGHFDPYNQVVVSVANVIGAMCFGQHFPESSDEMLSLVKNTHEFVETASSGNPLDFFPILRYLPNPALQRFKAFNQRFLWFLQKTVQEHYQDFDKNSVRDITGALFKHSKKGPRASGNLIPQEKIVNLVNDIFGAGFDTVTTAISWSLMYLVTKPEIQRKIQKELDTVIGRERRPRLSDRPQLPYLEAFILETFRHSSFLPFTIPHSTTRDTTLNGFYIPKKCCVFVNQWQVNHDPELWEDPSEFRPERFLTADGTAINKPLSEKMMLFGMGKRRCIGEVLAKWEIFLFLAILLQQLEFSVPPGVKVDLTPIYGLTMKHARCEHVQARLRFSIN

[8] = target: CYP2C19 (Homo sapiens, UniProt P33261); experiment: CYP inhibition; type: in vitro ADME; settings: read-out: CYP Inhibition IC50, CYP 2C19
Chain of CYP2C19 (P33261 whole entry): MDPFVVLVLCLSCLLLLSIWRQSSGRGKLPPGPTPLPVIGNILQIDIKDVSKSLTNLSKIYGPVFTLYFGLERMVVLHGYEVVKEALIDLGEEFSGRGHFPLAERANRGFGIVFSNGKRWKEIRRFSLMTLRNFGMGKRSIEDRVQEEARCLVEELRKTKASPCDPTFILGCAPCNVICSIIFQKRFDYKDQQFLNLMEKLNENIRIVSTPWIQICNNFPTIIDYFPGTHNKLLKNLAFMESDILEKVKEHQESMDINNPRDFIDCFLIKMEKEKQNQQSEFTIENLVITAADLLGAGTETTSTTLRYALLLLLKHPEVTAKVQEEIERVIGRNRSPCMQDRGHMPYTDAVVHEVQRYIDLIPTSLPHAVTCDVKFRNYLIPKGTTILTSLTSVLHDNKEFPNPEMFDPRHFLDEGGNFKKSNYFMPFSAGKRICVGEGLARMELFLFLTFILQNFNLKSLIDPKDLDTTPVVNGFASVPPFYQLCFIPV

[9] = target: CYP2C9 (Homo sapiens, UniProt P11712); experiment: CYP inhibition; type: in vitro ADME; settings: read-out: CYP Inhibition IC50, CYP 2C9
Chain of CYP2C9 (P11712 whole entry): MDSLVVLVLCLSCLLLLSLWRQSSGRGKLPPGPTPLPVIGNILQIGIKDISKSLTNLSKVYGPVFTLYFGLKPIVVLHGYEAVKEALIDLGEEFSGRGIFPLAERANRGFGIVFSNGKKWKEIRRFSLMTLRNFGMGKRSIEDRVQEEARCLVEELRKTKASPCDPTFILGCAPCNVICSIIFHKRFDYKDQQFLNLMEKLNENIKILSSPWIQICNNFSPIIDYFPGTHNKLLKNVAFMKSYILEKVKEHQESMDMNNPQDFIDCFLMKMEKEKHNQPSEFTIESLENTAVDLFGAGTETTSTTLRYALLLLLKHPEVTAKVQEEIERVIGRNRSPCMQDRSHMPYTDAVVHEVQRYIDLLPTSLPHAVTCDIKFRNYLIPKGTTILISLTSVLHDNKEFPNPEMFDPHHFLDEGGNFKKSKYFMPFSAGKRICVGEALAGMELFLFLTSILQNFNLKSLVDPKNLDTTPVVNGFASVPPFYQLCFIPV

[10] = target: CYP2D6 (Homo sapiens, UniProt P10635); experiment: CYP inhibition; type: in vitro ADME; settings: read-out: CYP Inhibition IC50, CYP 2D6
Chain of CYP2D6 (P10635 whole entry): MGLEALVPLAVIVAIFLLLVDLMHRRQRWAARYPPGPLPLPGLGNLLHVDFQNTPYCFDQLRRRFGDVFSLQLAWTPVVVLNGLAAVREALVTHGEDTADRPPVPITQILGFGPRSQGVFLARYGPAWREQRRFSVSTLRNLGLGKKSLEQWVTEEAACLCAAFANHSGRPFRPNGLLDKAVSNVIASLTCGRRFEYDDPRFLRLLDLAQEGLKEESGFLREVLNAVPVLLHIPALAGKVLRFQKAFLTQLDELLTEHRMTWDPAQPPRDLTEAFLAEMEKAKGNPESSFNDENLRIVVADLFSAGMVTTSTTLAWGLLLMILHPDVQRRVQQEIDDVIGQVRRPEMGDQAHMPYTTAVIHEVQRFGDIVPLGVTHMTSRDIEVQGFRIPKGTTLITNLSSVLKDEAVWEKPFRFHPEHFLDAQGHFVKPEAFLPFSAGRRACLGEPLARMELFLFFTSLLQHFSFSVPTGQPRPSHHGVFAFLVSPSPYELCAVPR

[11] = CellTiterGlo cytotoxicity assay; type: cell-based; settings: human, A549 cells

For `C[C@H]1COc2c(N3CCN(C)CC3)c(F)cc3c(=O)c(C(=O)O)cn1c23` [Levofloxacin], the MIC ([1]; Pseudomonas aeruginosa, read-out: levofloxacin MIC in the presence of […] TXA09155) was 1 µg/mL, the “Levofloxacin MIC” value ([1]; levofloxacin alone, strain DA7232) was 256 µg/mL and the MIC ([2]; ATCC27853, read-out: Antibiotic MIC in Presence of TXA09155 at a Concentration of 0) was 1 µg/mL. The MIC ([2]; ATCC27853, read-out: MICs, Lack of EPI) was 1 µg/mL, the “Antibiotic MIC in Presence of TXA09155 at a Concentration of 3.13” value ([2]; TXA09155 3.13 μg/mL) was 1 µg/mL and the “Antibiotic MIC in Presence of TXA09155 at a Concentration of 25” value ([2]; TXA09155 25 μg/mL) was 0.063 µg/mL.

In the case of `NCCC[C@H](N)CNC(=O)c1cc2ccc(-c3ccc(F)cc3)cc2[nH]1` [TXA01182], the “Frequency of resistance, Levofloxacin (4 μg/mL) + TXA01182 ([…])” value ([3]; levofloxacin 4 μg/mL + EPI […]) is reported as <3.33 × 10^−9.

With `Cl.NC[C@@H]1CN[C@H](CNC(=O)c2cc3ccc(-c4ccc(F)cc4)cc3[nH]2)C1` [TXA09155, N-(((2S,4R)-4-(aminomethyl)pyrrolidine-2-yl)methyl)-6-(4-fluorophenyl)-1H-indole-2-carboxamide hydrochloride salt] the “lowest concentration that potentiated levofloxacin eight-fold” value ([1]; strain DA7232) was 3.13 µg/mL, the “concentrations without inner membrane disruption (basal PI fluorescence)” value [4] was less than 50 µg/mL and the membrane depolarization [5] was “did not lead to membrane depolarization”. For the same compound, the ATP depletion [6] was “did not result in ATP depletion”, the “fold reduction of the FoR to levofloxacin” value [3] was “more than 149 fold” and the “FoR, resistance to TXA09155 alone (1×-MIC)” value ([3]; 50 μg/mL) was 1.9 × 10^−3. For the same compound, the “FoR, resistance to TXA09155 alone (4×-MIC)” value ([3]; 200 μg/mL) was 1.40 × 10^−6, the IC50 [7] was greater than 100 µM and the IC50 [8] was greater than 100 µM. The IC50 [9] was greater than 100 µM, the IC50 [10] was 67.2 µM and the IC50 [11] was greater than 40 µM. The MIC ([2]; ATCC27853) was 50 µg/mL and the “lowest active concentration for TXA09155” value ([2]; antibiotic potentiation) was 6.25 µg/mL.
